Source: PubChem BioAssay AID1056 (Sanford-Burnham Center for Chemical Genomics, 2008)

What follows are compounds tested against Alkaline phosphatase, tissue-nonspecific isozyme (Homo sapiens) (UniProt P05186) (assay: potency against alkaline phosphatase TNAP – biochemical, luminescent, dose response, SAR follow-up (AID 1056)). Details: purified human TNAP, luminescent substrate read-out; cut-off not given, nearly all actives have IC50 up to about 73 µM.

IC50, active:
CC(C)NC(=O)c1cc(-c2cc(F)c(Cl)cc2Cl)n[nH]1 4850 nM
O=C1C2CC=CCC2C(=O)N1c1n[nH]c(-c2ccco2)n1 (stereo not given) 4680 nM
O=C(c1cc(-c2ccc(Cl)cc2Cl)n[nH]1)N1CCCCCC1 1450 nM
CCN1CCN(C(=O)c2cc(-c3ccc(Cl)cc3Cl)n[nH]2)CC1 488 nM
CCOc1ccc(Cl)cc1S(=O)(=O)Nc1cccnc1 537 nM
O=C(c1cc(-c2ccc(Cl)cc2Cl)n[nH]1)N1CCOCC1 574 nM
COc1ccc(OC)c(S(=O)(=O)Nc2cccnc2)c1 1060 nM
O=C(Cn1cnc(Br)c1)c1ccc(O)c(O)c1 47500 nM
CC(C)(C)NC(=O)c1cc(-c2ccc(Cl)cc2Cl)n[nH]1 398 nM
COc1cc(C)c(C)cc1S(=O)(=O)Nc1cccnc1 1680 nM
O=C1C2CC=CCC2C(=O)N1c1n[nH]c(-c2cccnc2)n1 (stereo not given) 10500 nM
O=C(NCCCCO)c1cc(-c2ccc(Cl)cc2Cl)n[nH]1 34.5 nM
COc1cc(S(=O)(=O)Nc2cccnc2)c(OC)cc1Cl 1130 nM
COc1ccc(C)cc1S(=O)(=O)Nc1cnc2ccccc2c1 649 nM
COCCNC(=O)c1cc(-c2ccc(Cl)cc2Cl)n[nH]1 46.4 nM
CC(C)NC(=O)c1cc(-c2ccc(Cl)cc2Cl)n[nH]1 51.1 nM
O=C1C2C3C=CC(C3)C2C(=O)N1c1n[nH]c(CCc2ccccc2)n1 (stereo not given) 30600 nM
O=C(c1cc(-c2ccc(Cl)cc2Cl)n[nH]1)N(CCO)CCO 46.8 nM
COc1cc(S(=O)(=O)Nc2cccnc2)c(OC)cc1C 1490 nM
CC(C)CCNC(=O)c1cc(-c2ccc(Cl)cc2Cl)n[nH]1 459 nM
O=C(c1cc(-c2ccc(Cl)cc2Cl)n[nH]1)N1CCN(CCO)CC1 375 nM
COc1ccc2c(c1OC)C(=O)OC2CC(=O)c1ccc(O)c(O)c1 (stereo not given) 29200 nM
O=C(NCCO)c1cc(-c2ccc(F)cc2F)n[nH]1 35 nM
CN1CCN(C(=O)c2cc(-c3ccc(Cl)cc3Cl)n[nH]2)CC1 828 nM
COc1cccc(S(=O)(=O)Nc2cnc3ccccc3c2)c1 25800 nM
O=C(NCCO)c1cc(-c2cc(F)c(F)cc2F)n[nH]1 134 nM
O=C1c2ccccc2C(=O)N1c1n[nH]c(Cc2ccccc2)n1 670 nM
COc1cc(C)c(Cl)cc1S(=O)(=O)Nc1cccnc1 511 nM
O=C1C2CC=CCC2C(=O)N1c1n[nH]c(CCc2ccccc2)n1 (stereo not given) 27900 nM
COc1ccc(F)cc1S(=O)(=O)Nc1cccnc1 1290 nM
CCOc1cc(C)c(Cl)cc1S(=O)(=O)Nc1cccnc1 691 nM
O=C(c1cc(-c2cc(F)c(Cl)cc2Cl)n[nH]1)N(CCO)CCO 127 nM
O=C(NCCCO)c1cc(-c2ccc(Cl)cc2Cl)n[nH]1 31.3 nM
CC(C)CNC(=O)c1cc(-c2ccc(Cl)cc2Cl)n[nH]1 81.5 nM
O=C(NCCO)c1cc(-c2ccc(Cl)cc2Cl)n[nH]1 44.4 nM
CN(C)C(=O)c1cc(-c2cc(F)c(Cl)cc2Cl)n[nH]1 324 nM
Cc1nc(Br)cn1CC(=O)c1ccc(O)c(O)c1 8740 nM
O=C(NCCCO)c1cc(-c2cc(F)c(Cl)cc2Cl)n[nH]1 55.8 nM
CN(C)C(=O)c1cc(-c2ccc(Cl)cc2Cl)n[nH]1 119 nM
Cc1cn(CC(=O)c2ccc(O)c(O)c2)cn1 41100 nM
O=C1C2CCCCC2C(=O)N1c1n[nH]c(Cc2ccccc2)n1 (stereo not given) 1570 nM
O=C(NCCO)c1cc(-c2cc(F)c(Cl)cc2Cl)n[nH]1 100 nM
O=C(CNc1nc2ccccc2[nH]1)c1ccc(O)c(O)c1 93800 nM
CCN(CC)C(=O)c1cc(-c2ccc(Cl)cc2Cl)n[nH]1 285 nM
COc1cc(S(=O)(=O)Nc2cccnc2)c(OC)cc1Br 1550 nM
